# Results: patent publication US20050112573A1, “Method of detecting toxic substance” (priority 2001, published 2005)
# System: yeast genes (level of expressed mRNA)
# Test: DNA chip analysis of expressed mRNA of yeast genes after 2 h culture with a toxic chemical substance
# Format: cell-based, Saccharomyces cerevisiae S288C
# Protocol: Yeast (Saccharomyces cerevtisiae S288C (α SUC2mal mel gap2 CUP1)) were cultured at 25° C. on YPD medium (yeast extract 1%, polypepton 2%, glucose 2%). One of toxic chemical substances was added to the cell at logarithmic growth phase, and the cell was further cultured for two hours. Cell was cultured without any chemical substance in the same condition, and was used as control. Concentrations of the chemical substances were defined to inhibit the growth of the yeast but not lead to death.
# After the completion of cultivation, the culture was centrifuged to collect the cells. To the cells, sodium acetate buffer (50 mM sodium acetate, 10 mM EDTA, 1% SDS) was added, and the mixture was shaken at 65° C. for five minutes, followed by returning to room temperature, and obtaining the supernatant, which procedure was repeated two times. To the supernatant, ½ amount of a solution of phenol/chloroform was added, and the mixture was centrifuged to give a supernatant, which was added with an equal amount of chloroform, and the mixture was centrifuged to give a supernatant. To the supernatant, an equal amount of isopropanol containing 0.3 M sodium acetate was added, and the mixture was allowed to stand at room temperature for 30 minutes, after which the mixture was centrifuged to give a sediment of the whole RNAs. Seventy % ethanol was added to the sediment, and the mixture was again centrifuged to give a sediment, which was then dried and dissolved in water. mRNA was isolated from the whole RNAs as followings. In view of the fact that a poly A chain is attached to the 3′ terminus of mRNA, a polynucleotide having a poly T structure which was immobilized on the surface of latex beads was used to trap the mRNA, and then the mRNA was washed and eluted with spine column (Oligotex-dT30<Super>mRNA Purification Kit, Takara). Reverse transcription of the mRNA was conducted with a reverse transcriptase (Super Script II Reverse Transcriptase; catalogue No. 18064-014, GibcoBRL) using fluorescence-labeled nucleotides to give cDNAs that were introduced with Cy3-dUTP or Cy5-dUTP during the reverse transcription.
# The labeled cDNAs were dissolved in TE buffer (10 mM Tris-HCl/1 mM EDTA, pH8.0), and the solution was dropped on the DNA chip containing the whole genes of yeast (DNA Chip Research Inc. Japan) so that the cDNAs were hybridized on the DNA chip at 65° C. for over 12 hours. The fluoresces intensity of the DNA chip was read with a scanner, and the ratio relative to the fluorescence intensity resulting from the absence of chemical substance was estimated as the following, which is shown in Tables 1 to 9: [formula]
# In the Tables, “Intensity” indicated in the rightmost column is a value of the level of expressed mRNA of each gene in control cells as divided by the average level of the expressions of the whole genes.
structure (smiles),measurement,setting,value
"N#Cc1c(Cl)c(Cl)c(Cl)c(C#N)c1Cl [(9), 2,4,5,6-tetrachloro-1,3-benzenedicarbonitrile]",The level of expressed mRNA in the presence of chemical substance/The level of expressed mRNA in the absence of chemical substance,yeast gene YKL039W,1.3
same,The level of expressed mRNA in the presence of chemical substance/The level of expressed mRNA in the absence of chemical substance,yeast gene YKL041W,1.6
same,The level of expressed mRNA in the presence of chemical substance/The level of expressed mRNA in the absence of chemical substance,yeast gene YKL139W,1.6
same,The level of expressed mRNA in the presence of chemical substance/The level of expressed mRNA in the absence of chemical substance,yeast gene YKL165C,0.4
same,The level of expressed mRNA in the presence of chemical substance/The level of expressed mRNA in the absence of chemical substance,yeast gene YKL193C,1.0
same,The level of expressed mRNA in the presence of chemical substance/The level of expressed mRNA in the absence of chemical substance,yeast gene YKR014C,2.4
same,The level of expressed mRNA in the presence of chemical substance/The level of expressed mRNA in the absence of chemical substance,yeast gene YLR093C,1.5
same,The level of expressed mRNA in the presence of chemical substance/The level of expressed mRNA in the absence of chemical substance,yeast gene YLR120C,1.8
same,The level of expressed mRNA in the presence of chemical substance/The level of expressed mRNA in the absence of chemical substance,yeast gene YLR136C,0.9
same,The level of expressed mRNA in the presence of chemical substance/The level of expressed mRNA in the absence of chemical substance,yeast gene YLR178C,4.3
same,The level of expressed mRNA in the presence of chemical substance/The level of expressed mRNA in the absence of chemical substance,yeast gene YLR250W,2.7
same,The level of expressed mRNA in the presence of chemical substance/The level of expressed mRNA in the absence of chemical substance,yeast gene YLR327C,3.0
same,The level of expressed mRNA in the presence of chemical substance/The level of expressed mRNA in the absence of chemical substance,yeast gene YLR356W,2.3
same,The level of expressed mRNA in the presence of chemical substance/The level of expressed mRNA in the absence of chemical substance,yeast gene YLR362W,3.5
same,The level of expressed mRNA in the presence of chemical substance/The level of expressed mRNA in the absence of chemical substance,yeast gene YLR391W,0.4
same,The level of expressed mRNA in the presence of chemical substance/The level of expressed mRNA in the absence of chemical substance,yeast gene YLR429W,0.9
same,The level of expressed mRNA in the presence of chemical substance/The level of expressed mRNA in the absence of chemical substance,yeast gene YMR004W,94.2
same,The level of expressed mRNA in the presence of chemical substance/The level of expressed mRNA in the absence of chemical substance,yeast gene YMR104C,0.6
same,The level of expressed mRNA in the presence of chemical substance/The level of expressed mRNA in the absence of chemical substance,yeast gene YMR219W,2.3
same,The level of expressed mRNA in the presence of chemical substance/The level of expressed mRNA in the absence of chemical substance,yeast gene YMR226C,2.6
same,The level of expressed mRNA in the presence of chemical substance/The level of expressed mRNA in the absence of chemical substance,yeast gene YMR275C,2.4
same,The level of expressed mRNA in the presence of chemical substance/The level of expressed mRNA in the absence of chemical substance,yeast gene YMR276W,1.8
same,The level of expressed mRNA in the presence of chemical substance/The level of expressed mRNA in the absence of chemical substance,yeast gene YMR314W,5.9
same,The level of expressed mRNA in the presence of chemical substance/The level of expressed mRNA in the absence of chemical substance,yeast gene YNL006W,4.0
same,The level of expressed mRNA in the presence of chemical substance/The level of expressed mRNA in the absence of chemical substance,yeast gene YNL007C,3.0
same,The level of expressed mRNA in the presence of chemical substance/The level of expressed mRNA in the absence of chemical substance,yeast gene YNL093W,1.7
same,The level of expressed mRNA in the presence of chemical substance/The level of expressed mRNA in the absence of chemical substance,yeast gene YNL333W,2.3
same,The level of expressed mRNA in the presence of chemical substance/The level of expressed mRNA in the absence of chemical substance,yeast gene YNR010W,1.7
same,The level of expressed mRNA in the presence of chemical substance/The level of expressed mRNA in the absence of chemical substance,yeast gene YNR069C,5.5
same,The level of expressed mRNA in the presence of chemical substance/The level of expressed mRNA in the absence of chemical substance,yeast gene YOL013C,0.8
same,The level of expressed mRNA in the presence of chemical substance/The level of expressed mRNA in the absence of chemical substance,yeast gene YOL164W,4.9
same,The level of expressed mRNA in the presence of chemical substance/The level of expressed mRNA in the absence of chemical substance,yeast gene YOR036W,1.2
same,The level of expressed mRNA in the presence of chemical substance/The level of expressed mRNA in the absence of chemical substance,yeast gene YOR117W,3.5
same,The level of expressed mRNA in the presence of chemical substance/The level of expressed mRNA in the absence of chemical substance,yeast gene YOR124C,2.0
same,The level of expressed mRNA in the presence of chemical substance/The level of expressed mRNA in the absence of chemical substance,yeast gene YOR132W,2.8
same,The level of expressed mRNA in the presence of chemical substance/The level of expressed mRNA in the absence of chemical substance,yeast gene YOR157C,5.7
same,The level of expressed mRNA in the presence of chemical substance/The level of expressed mRNA in the absence of chemical substance,yeast gene YOR181W,0.6
same,The level of expressed mRNA in the presence of chemical substance/The level of expressed mRNA in the absence of chemical substance,yeast gene YOR185C,1.9
same,The level of expressed mRNA in the presence of chemical substance/The level of expressed mRNA in the absence of chemical substance,yeast gene YOR198C,2.4
same,The level of expressed mRNA in the presence of chemical substance/The level of expressed mRNA in the absence of chemical substance,yeast gene YOR259C,2.7
same,The level of expressed mRNA in the presence of chemical substance/The level of expressed mRNA in the absence of chemical substance,yeast gene YOR261C,5.5
same,The level of expressed mRNA in the presence of chemical substance/The level of expressed mRNA in the absence of chemical substance,yeast gene YOR288C,0.9
same,The level of expressed mRNA in the presence of chemical substance/The level of expressed mRNA in the absence of chemical substance,yeast gene YOR355W,0.1
same,The level of expressed mRNA in the presence of chemical substance/The level of expressed mRNA in the absence of chemical substance,yeast gene YOR383C,1.2
same,The level of expressed mRNA in the presence of chemical substance/The level of expressed mRNA in the absence of chemical substance,yeast gene YPL089C,0.4
same,The level of expressed mRNA in the presence of chemical substance/The level of expressed mRNA in the absence of chemical substance,yeast gene YPL109C,1.2
same,The level of expressed mRNA in the presence of chemical substance/The level of expressed mRNA in the absence of chemical substance,yeast gene YPL149W,5.6
same,The level of expressed mRNA in the presence of chemical substance/The level of expressed mRNA in the absence of chemical substance,yeast gene YPL154C,2.8
same,The level of expressed mRNA in the presence of chemical substance/The level of expressed mRNA in the absence of chemical substance,yeast gene YPR103W,5.5
same,The level of expressed mRNA in the presence of chemical substance/The level of expressed mRNA in the absence of chemical substance,yeast gene YPR108W,3.7
